# Results published in patent publication US20020114734A1, “Microplate thermal shift assay apparatus for ligand development and multi-variable protein chemistry optimization” (priority 1996, published 2002).
# Read-outs that look alike come from different tables or passages of the source. Where a SMILES comes first, the peptide text is derived from it. The star is where a group is joined. CH2Cl = ClC*
# What was measured:
# D(II) FGF receptor 1 = experiment: Microplate thermal shift screen of biochemical conditions, D(II) FGF receptor 1 stability; design: species or system human; details: for effect on D(II) FGF receptor 1 stability: additives in 50 mM MOPS pH 7, 0.1 M NaCl
# Protocol: The microplate thermal shift assay was used to simultaneously screen the effects of multiple biochemical conditions on D(II) FGF receptor 1 stability. The assays were performed by mixing 1 μL of D(II) FGFR1 (from a 500 μM concentrated stock in 50 mM HEPES pH 7.5) with 4 μL of each biochemical condition in wells of a 96-well polycarbonate microtiter plate. Final protein concentration after mixing was 100 μM and final 1,8-ANS concentration was 200 μM. Biochemical conditions were tested as follows: The pH's tested were 5 (Na acetate), 6 (MES), 7 (MOPS), 8 (HEPES), and 9 (CHES), with final buffer concentrations of 50 mM.
# The salt concentrations tested were 0.1 or 0.5 M NaCl. Additives were tested in 50 mM MOPS, pH 7, 0.1 M NaCl, at final concentrations of 1 mM (EDTA, dithiothreitol), 10 mM (CaCl2, MgCl2, MgSO4, NiSO4), 50 mM (arginine), 100 mM ((NH4)2SO4, LiSO4, Na2SO4, ZnSO4), 5% w/v (polyethylene glycol 6000), and 10% v/v glycerol.
# (§1) Thermal denaturation profiles were generated as previously described for thrombin, aFGF, Factor D, and Factor Xa, by incremental heating of the microplate followed by a fluorescence reading after each temperature increase. Data were analyzed by non-linear least squares fitting as described previously.
# D(II) FGFR1 = target: T1, D(II) FGFR1 (Homo sapiens, UniProt P11362); experiment: Miniaturized (10 μL) microplate thermal shift assay; assay type: binding
# T1 construct: hexa-histidine (N); made in house
# T1 sequence (P11362 158-246 limits assumed): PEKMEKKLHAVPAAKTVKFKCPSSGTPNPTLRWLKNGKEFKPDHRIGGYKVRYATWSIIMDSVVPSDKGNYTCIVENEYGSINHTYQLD
# Protocol: Recombinant D(II) FGFR1 was purified from inclusion bodies and purified by affinity chromatography on heparin sepharose. A stock solution of D(II) FGFR1 (15 mg/mL; 1.1 mM) was diluted to 50 μM in assay buffer (50 mM Hepes, pH 7.5, 0.1 M NaCl). The assay volume was 10 μL and the concentration of 1,8-ANS was 250 μM.
# [1] = tested on: human urokinase-type plasminogen activator (u-PA); experiment: Miniaturized (5 μL) microplate thermal shift assay of urokinase; assay type: binding; details: CMK-u-PA complex, MOPS pH 7, NaCl, 1,8-ANS
# Excerpt: Another target molecule analyzed was human urokinase-type plasminogen activator (u-PA). U-PA enzymatically converts plasminogen into the active protease plasmin. U-PA is involved in tissue remodeling, cellular migration and metastases. The gene for u-PA was obtained from ATCC (Rockville, Md.) and modified to appropriately express active enzyme in E. coli. u-PA was cloned, overexpressed in E. coli, and purified using procedures similar to those described by Winkler et al. (Biochemistry 25:4041-4045 (1986)). […] The experiment was performed in the miniaturized format in 5 μL well volume. One μL of concentrated CMK-u-PA (13 g/L, 371.4 μM) was added to 4 μL of 62.5 mM MOPS, pH 7, 125 mM NaCl, and 250 μM 1,8-ANS, in multiple wells of a 96-well polycarbonate V-bottom microtiter plate. A thermal denaturation curve was generated as previously described for thrombin, aFGF, D(II)FGFR1, Factor D, and Factor Xa, by incremental heating of the microplate followed by a fluorescence reading after each temperature increase.
# [2] = target: T2, heparin binding site of basic fibroblast growth factor (bFGF) (Homo sapiens, UniProt P09038); experiment: Microplate thermal shift assay for ligands binding to bFGF; details: read-out: binding affinity
# T2 construct: host or cells: E. coli
# T2 sequence (P09038 134-288, species assumed): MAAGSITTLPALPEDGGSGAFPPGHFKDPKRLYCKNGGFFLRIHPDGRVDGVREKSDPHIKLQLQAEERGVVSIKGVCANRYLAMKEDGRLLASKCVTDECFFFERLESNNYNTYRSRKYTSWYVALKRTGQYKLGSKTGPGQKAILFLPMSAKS
# Excerpt: The microplate thermal shift assay was used to assess ligands for binding to the heparin binding site of basic fibroblast growth factor (bFGF). The gene for bFGF was purchased from R&D Systems and was cloned and expressed in E. coli as previously described (Thompson, L. D. et al., Biochemistry 33:3831-3840 (1994); Pantoliano, M. W. et al., Biochemistry 33:10229-10248 (1994); Springer, B. A. et al., J. Biol. Chem. 269:26879-26884 (1994)).
# [3] = target: T3, acidic fibroblast growth factor (aFGF) (Homo sapiens, UniProt P05230); experiment: Microplate thermal shift assay for ligands binding to aFGF, turbidity as signal
# T3 construct: host or cells: E. coli
# T3 sequence (P05230 whole entry, species assumed): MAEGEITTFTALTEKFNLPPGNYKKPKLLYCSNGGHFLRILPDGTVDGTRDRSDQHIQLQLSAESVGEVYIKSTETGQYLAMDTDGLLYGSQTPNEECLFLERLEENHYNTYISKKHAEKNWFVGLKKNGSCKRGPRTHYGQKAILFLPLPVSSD
# Excerpt: The second therapeutic receptor tested in the microplate thermal shift assay was acidic fibroblast growth factor (aFGF), a growth factor that plays a key role in angiogenesis (Folkman, J. et al., J. Biol. Chem. 267:10931-10934 (1992)). A synthetic gene for this protein was purchased from R&D Systems (Minneapolis, Minn.), and was cloned and expressed in E. coli using methods similar to those described for basic fibroblast growth factor (bFGF) (Thompson, L. D. et al., Biochemistry 33:3831-3840 (1994); Pantoliano, M. W. et al., Biochemistry 33:10229-10248 (1994); Springer, B. A. et al., J. Biol. Chem. 269:26879-26884 (1994)). Recombinant aFGF was then purified by heparin-sepharose affinity chromatography as described (Thompson, L. D. et al., Biochemistry 33:3831-3840 (1994)). aFGF is also known to bind heparin/heparan, which is a cofactor for mitogenic activity. […] A microplate thermal assay of these compounds was set up in a way similar to that described above for human α-thrombin. […] The affinity constants covered a fairly broad range of binding affinities, with pentosan PSO4 showing the highest affinity.
# human α-thrombin = target: T4, human α-thrombin (Homo sapiens, UniProt P00734); experiment: Microplate thermal shift screen of biochemical conditions, thrombin stability; details: for effect on human α-thrombin stability: 10% glycerol, 10 mM dithiothreitol
# T4 construct: A stock human α-thrombin solution; purchased Enzyme Research Labs
# Protocol: The microplate thermal shift assay was used, with four different fluorophores, to simultaneously screen the effects of multiple pH values, sodium chloride concentrations, and reduction-oxidation compounds on human α-thrombin stability. […] Reaction volume was 100 μL.
# human urokinase = experiment: Microplate thermal shift screen of biochemical conditions, urokinase stability; details: 0.1 or 0.5 M NaCl; 10% glycerol
# Protocol: The microplate thermal shift assay was used to simultaneously screen the effects of multiple biochemical conditions on human urokinase stability. This experiment was performed by mixing 1 μL of urokinase (from a […] concentrated stock in 20 mM Tris pH 8) with 4 μL of each biochemical condition in wells of a 96-well polycarbonate microtiter plate. Final protein concentration after mixing was 74 μM and final 1,8-ANS concentration was 200 μM. Biochemical conditions were tested as follows: The pH's tested were 5 (acetate), 6 (MES), 7 (MOPS), 8 (HEPES), and 9 (CHES) with final buffer concentrations of 50 mM. The salt concentrations tested were 0.1 or 0.5 M NaCl. Glycerol was tested at 10% v/v in 50 mM MOPS, pH 7, 0.1 M NaCl.
# as §1, with “D, D(II) FGFR1,” for “D,”
# thrombin = thrombin (Homo sapiens, UniProt P00734); details: 5 mM Tris buffer pH 8.0, 0.1% PEG, 25° C.; read-out: Kd of Na+ binding site; cited from earlier work
smiles,measurement,setting,value
N=C(N)NCCC[C@H](N)C(=O)O [arginine],effect on D(II) FGF receptor 1 stability,D(II) FGF receptor 1,stabilized the protein
O=C(NCCCNC(=O)[C@H](OS(=O)(=O)O)[C@@H](OS(=O)(=O)O)[C@H](O[C@@H]1O[C@H](COS(=O)(=O)O)[C@H](OS(=O)(=O)O)[C@H](OS(=O)(=O)O)[C@H]1OS(=O)(=O)O)[C@@H](COS(=O)(=O)O)OS(=O)(=O)O)[C@H](OS(=O)(=O)O)[C@@H](OS(=O)(=O)O)[C@H](O[C@@H]1O[C@H](COS(=O)(=O)O)[C@H](OS(=O)(=O)O)[C@H](OS(=O)(=O)O)[C@H]1OS(=O)(=O)O)[C@@H](COS(=O)(=O)O)OS(=O)(=O)O [aprosulate],unfolding transition (Tm),D(II) FGFR1; aprosulate 300 uM,about 320 K
same,increase of unfolding transition,"D(II) FGFR1; aprosulate 300 uM, 50 μM D(II) FGFR1, 10 μL",about 8 K
same,Kd,"D(II) FGFR1; estimate, read-out: binding affinity at the Tm",~18 µM
O=S(=O)([O-])[O-].[Li+].[Li+] [Li2SO4],effect on D(II) FGF receptor 1 stability,D(II) FGF receptor 1,stabilizing effects
O=S(=O)([O-])[O-].[Mg+2] [MgSO4],effect on D(II) FGF receptor 1 stability,D(II) FGF receptor 1,stabilized the protein
same,effect on D(II) FGF receptor 1 stability,D(II) FGF receptor 1; listed as Mg2SO4,stabilizing effects
"N=C(N)NCCC[C@H](NC(=O)CNC(=O)[C@@H](N)CCC(=O)O)C(=O)CCl [CMK, glu-gly-arg-chloromethylketone] (H-Glu-Gly-Arg-CH2Cl)",Tm,[1],81 °C
"Cc1ccc(C(=O)Nc2ccc(S(=O)(=O)O)c3cc(S(=O)(=O)O)cc(S(=O)(=O)O)c23)cc1NC(=O)c1cccc(NC(=O)Nc2cccc(C(=O)Nc3cc(C(=O)Nc4ccc(S(=O)(=O)O)c5cc(S(=O)(=O)O)cc(S(=O)(=O)O)c45)ccc3C)c2)c1 [Suramin, suramin]",Kd,[2],3.5 µM
same,Tm,"[3]; aFGF/ligand, aFGF 0.25 mg/mL, ligand 47-200 μM, turbidity",330.15 ° K
same,Kd,"[3]; equation (1), estimated ΔHu 60.0 kcal/mole, ΔCpu 0.95 kcal/mole-°K, read-out: Kd at Tm",3.22 µM
same,Kd,"[3]; equation (3), ΔHL estimated −10.0 kcal/mole, read-out: Kd at 298° K Observed",0.622 µM
same,ΔTm,[3]; relative to aFGF alone (317.15 ° K),13.0 ° K
O[C@H](CS)[C@H](O)CS (racemic) [dithiothreitol],effect on human α-thrombin stability,human α-thrombin,destabilizing effect
same,effect on D(II) FGF receptor 1 stability,D(II) FGF receptor 1,destabililzed the protein
OCC(O)CO [glycerol],effect on human urokinase stability,human urokinase,stabilized the protein
same,effect on human α-thrombin stability,human α-thrombin,stabilizing effect
same,effect on D(II) FGF receptor 1 stability,D(II) FGF receptor 1,stabilized the protein
N.N.O=S(=O)(O)O [(NH4)2SO4],effect on D(II) FGF receptor 1 stability,D(II) FGF receptor 1,stabilizing effects
"[Cl-].[Na+] [NaCl, sodium chloride]",Kd,thrombin,30000 ± 3000 µM
same,effect on human urokinase stability,human urokinase,stabilized the protein
same,ΔTm,human α-thrombin; NaCl concentration increased from 0 to 0.5 M,about 12 °C
same,Kd,"human α-thrombin; near the Tm (53° C.), 50 mM Hepes pH 8.0, zero and 0.10 M NaCl, read-out: NaCl binding (estimated with equation (1))",~6000 µM
same,ΔTm,D(II) FGF receptor 1; NaCl concentration increased from 0.1 to 0.5 M,about 5 °C
O=S(=O)([O-])[O-].[Na+].[Na+] [Na2SO4],effect on D(II) FGF receptor 1 stability,D(II) FGF receptor 1,stabilizing effects
